Results reported in patent publication US12492188B2, “1H-benzo[D]imidazole derivatives as TLR9 inhibitors for the treatment of fibrosis” (BRISTOL-MYERS SQUIBB COMPANY, priority 2020, dated 2025).
Where two headings read alike, the source gives them in different places.

Experiments:
Type in all cases: cell-based
[1] = molecular target: T1, human TLR8 (Homo sapiens, UniProt Q9NR97); assay: TLR8 inhibition reporter assay (HEK-Blue cells, secreted embryonic alkaline phosphatase reporter); conditions: HEK-Blue cells overexpressing human TLR8, stimulated with R848 15.9 μM; read-out: TLR 8 IC50
T1 construct: host or cells: HEK-Blue cells (HEK293-derived reporter line)
T1 sequence (Q9NR97 27-1041): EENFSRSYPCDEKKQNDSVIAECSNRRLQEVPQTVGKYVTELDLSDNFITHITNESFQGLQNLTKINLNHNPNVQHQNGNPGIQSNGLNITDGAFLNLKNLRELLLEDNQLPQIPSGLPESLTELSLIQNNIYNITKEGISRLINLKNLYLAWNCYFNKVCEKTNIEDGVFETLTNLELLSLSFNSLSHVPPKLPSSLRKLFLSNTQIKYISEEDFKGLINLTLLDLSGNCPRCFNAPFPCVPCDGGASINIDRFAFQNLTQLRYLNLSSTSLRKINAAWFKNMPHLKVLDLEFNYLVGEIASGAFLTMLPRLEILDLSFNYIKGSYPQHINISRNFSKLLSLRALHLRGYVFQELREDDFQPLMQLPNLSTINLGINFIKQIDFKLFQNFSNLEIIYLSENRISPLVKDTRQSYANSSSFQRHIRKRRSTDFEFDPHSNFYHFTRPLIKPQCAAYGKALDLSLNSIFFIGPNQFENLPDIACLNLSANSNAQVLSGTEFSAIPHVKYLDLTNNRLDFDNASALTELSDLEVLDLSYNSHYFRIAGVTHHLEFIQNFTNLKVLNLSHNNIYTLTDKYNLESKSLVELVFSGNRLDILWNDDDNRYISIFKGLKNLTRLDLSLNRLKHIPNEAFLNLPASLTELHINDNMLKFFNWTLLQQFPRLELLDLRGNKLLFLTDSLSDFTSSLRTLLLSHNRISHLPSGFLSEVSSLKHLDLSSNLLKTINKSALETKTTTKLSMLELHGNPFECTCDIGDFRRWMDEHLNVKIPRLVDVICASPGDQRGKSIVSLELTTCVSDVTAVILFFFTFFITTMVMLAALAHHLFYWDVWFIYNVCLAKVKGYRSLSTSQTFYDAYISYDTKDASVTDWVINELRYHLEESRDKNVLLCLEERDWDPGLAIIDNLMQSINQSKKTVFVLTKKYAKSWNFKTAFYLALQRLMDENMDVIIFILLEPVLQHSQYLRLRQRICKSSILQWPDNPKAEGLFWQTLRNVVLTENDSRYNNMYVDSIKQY
Procedure, shortened: (§1)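 HEK-Blue cells expressing human TLR7, TLR8 or TLR9 with an NF-κB/AP-1-driven SEAP reporter were pretreated with compound (0.05 nM–50 μM final) for 30 min at room temperature. Agonists were gardiquimod 7.5 μM for TLR7, R848 15.9 μM for TLR8 and ODN2006 5 nM for TLR9. SEAP was read after 22 h at 37 °C, and inhibition was calculated relative to agonist-plus-DMSO and known-inhibitor controls.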

[2] = molecular target: T2, human TLR9 (Homo sapiens, UniProt Q9NR96); assay: TLR9 inhibition reporter assay (HEK-Blue cells, secreted embryonic alkaline phosphatase reporter)
T2 construct: host or cells: HEK-Blue cells (HEK293-derived reporter line)
T2 sequence (Q9NR96 26-1032): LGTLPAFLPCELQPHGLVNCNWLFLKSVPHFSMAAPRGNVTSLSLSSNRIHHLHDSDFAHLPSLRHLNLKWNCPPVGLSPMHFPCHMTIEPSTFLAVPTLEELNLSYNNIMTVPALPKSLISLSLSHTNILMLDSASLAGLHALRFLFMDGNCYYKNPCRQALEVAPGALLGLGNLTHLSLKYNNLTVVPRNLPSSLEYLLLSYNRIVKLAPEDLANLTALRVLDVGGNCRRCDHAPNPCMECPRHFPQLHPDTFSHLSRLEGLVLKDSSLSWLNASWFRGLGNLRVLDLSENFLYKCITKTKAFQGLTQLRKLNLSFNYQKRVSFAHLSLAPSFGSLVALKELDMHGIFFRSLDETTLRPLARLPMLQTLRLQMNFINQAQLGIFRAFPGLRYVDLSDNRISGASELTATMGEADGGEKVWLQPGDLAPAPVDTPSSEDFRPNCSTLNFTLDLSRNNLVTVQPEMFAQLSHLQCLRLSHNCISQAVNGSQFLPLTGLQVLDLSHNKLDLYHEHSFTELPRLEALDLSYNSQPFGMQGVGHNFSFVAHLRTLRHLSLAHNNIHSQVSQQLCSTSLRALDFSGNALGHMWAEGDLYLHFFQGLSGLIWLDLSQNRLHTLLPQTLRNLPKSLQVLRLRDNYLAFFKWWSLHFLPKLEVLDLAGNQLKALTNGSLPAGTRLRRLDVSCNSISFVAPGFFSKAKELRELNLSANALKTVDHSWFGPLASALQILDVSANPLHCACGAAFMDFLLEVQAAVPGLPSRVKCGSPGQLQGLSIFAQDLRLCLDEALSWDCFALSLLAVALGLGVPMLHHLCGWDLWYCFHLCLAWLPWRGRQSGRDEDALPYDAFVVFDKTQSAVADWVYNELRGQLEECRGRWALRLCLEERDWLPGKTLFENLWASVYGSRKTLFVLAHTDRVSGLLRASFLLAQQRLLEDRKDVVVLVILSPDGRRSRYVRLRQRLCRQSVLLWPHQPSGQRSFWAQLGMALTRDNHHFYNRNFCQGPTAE
Procedure, shortened: as §1

[3] = molecular target: T3, human TLR7 (Homo sapiens, UniProt Q9NYK1); assay: TLR7 inhibition reporter assay (HEK-Blue cells, secreted embryonic alkaline phosphatase reporter); conditions: HEK-Blue cells overexpressing human TLR7, stimulated with gardiquimod 7.5 μM; read-out: TLR 7 IC50
T3 construct: host or cells: HEK-Blue cells (HEK293-derived reporter line)
T3 sequence (Q9NYK1 27-1049): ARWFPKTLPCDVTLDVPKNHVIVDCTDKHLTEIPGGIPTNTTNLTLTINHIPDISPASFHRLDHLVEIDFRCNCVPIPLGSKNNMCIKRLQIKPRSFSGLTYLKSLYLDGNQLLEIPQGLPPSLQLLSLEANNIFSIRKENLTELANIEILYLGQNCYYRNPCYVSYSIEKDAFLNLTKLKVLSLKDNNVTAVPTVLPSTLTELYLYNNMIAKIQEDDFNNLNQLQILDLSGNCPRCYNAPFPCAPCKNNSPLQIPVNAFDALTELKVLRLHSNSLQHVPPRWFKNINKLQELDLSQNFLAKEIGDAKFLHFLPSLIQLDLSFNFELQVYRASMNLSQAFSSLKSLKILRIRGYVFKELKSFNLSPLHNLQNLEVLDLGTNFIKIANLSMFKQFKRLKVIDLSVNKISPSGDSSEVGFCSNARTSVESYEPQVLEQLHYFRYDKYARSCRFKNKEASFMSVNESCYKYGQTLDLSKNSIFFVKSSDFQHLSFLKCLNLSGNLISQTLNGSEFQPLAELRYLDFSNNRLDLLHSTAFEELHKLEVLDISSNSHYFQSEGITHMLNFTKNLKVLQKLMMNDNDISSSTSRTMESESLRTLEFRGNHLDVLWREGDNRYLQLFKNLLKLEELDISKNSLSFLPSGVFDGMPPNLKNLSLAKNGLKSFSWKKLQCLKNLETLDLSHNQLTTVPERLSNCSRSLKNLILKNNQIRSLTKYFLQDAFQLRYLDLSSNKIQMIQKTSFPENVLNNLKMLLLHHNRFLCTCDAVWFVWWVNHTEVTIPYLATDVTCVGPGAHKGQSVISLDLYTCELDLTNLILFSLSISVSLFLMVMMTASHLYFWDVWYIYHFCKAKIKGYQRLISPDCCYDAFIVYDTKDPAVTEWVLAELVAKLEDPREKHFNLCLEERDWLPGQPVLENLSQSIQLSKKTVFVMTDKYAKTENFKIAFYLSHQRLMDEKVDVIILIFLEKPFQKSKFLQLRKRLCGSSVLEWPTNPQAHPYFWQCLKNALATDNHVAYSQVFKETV
Procedure, shortened: as §1

[4] = HEK-Blue cells overexpressing human TLR9, stimulated with ODN2006 5 nM, read-out: TLR 9 IC50

Structure (SMILES) | IC50 [1] [µM] | IC50 [2] [µM] | IC50 [2, 4] [µM] | IC50 [3] [µM]
Cn1c(-c2ccc(S(C)(=O)=O)cc2)nc2cc(F)c(C3CCN(C4CC5CCC(C4)N5C4CCOCC4)CC3)cc21 (stereo not drawn) [Example 237, 5-fluoro-1-methyl-2-(4-(methylsulfonyl)phenyl)-6-(1-(8-(tetrahydro-2H-pyran-4-yl)-8-azabicyclo[3.2.1]octan-3-yl)piperidin-4-yl)-1H-benzo[d]imidazole] | > 50 | 0.087 | 0.087 | > 50
CC(C)CN1CCC(N2CCC(c3cc4nc(-c5ccc(S(C)(=O)=O)cc5)n(C)c4cc3F)CC2)CC1 [Example 240, 6-fluoro-5-(1′-isobutyl-[1,4′-bipiperidin]-4-yl)-1-methyl-2-(4-(methylsulfonyl)phenyl)-1H-benzo[d]imidazole] | > 50 | 0.12 | 0.121 | 6.6
Cn1c(-c2ccc(S(C)(=O)=O)cc2)nc2cc(C3CCN(C4CCN(C5CC5)CC4)CC3)c(F)cc21 [Example 241, 5-(1′-cyclopropyl-[1,4′-bipiperidin]-4-yl)-6-fluoro-1-methyl-2-(4-(methylsulfonyl)phenyl)-1H-benzo[d]imidazole] | > 50 | 1.7 | 1.71 | > 50
Cn1c(-c2ccc(S(C)(=O)=O)cc2)nc2cc(C3CCN(C4CCN(CC5CC5)CC4)CC3)c(F)cc21 [Example 242, 5-(1′-(cyclopropylmethyl)-[1,4′-bipiperidin]-4-yl)-6-fluoro-1-methyl-2-(4-(methylsulfonyl)phenyl)-1H-benzo[d]imidazole] | > 50 | 0.16 | 0.158 | 14.2
Cn1c(-c2ccc(S(C)(=O)=O)cc2)nc2cc(C3CCN(C4CCN(C5CCC5)CC4)CC3)c(F)cc21 [Example 243, 5-(1′-cyclobutyl-[1,4′-bipiperidin]-4-yl)-6-fluoro-1-methyl-2-(4-(methylsulfonyl)phenyl)-1H-benzo[d]imidazole] | > 50 | 0.94 | 0.943 | > 50
Cn1c(-c2ccc(S(C)(=O)=O)cc2)nc2cc(C3CCN(C4CCN(C5COC5)CC4)CC3)c(F)cc21 [Example 244, 6-fluoro-1-methyl-2-(4-(methylsulfonyl)phenyl)-5-(1′-(oxetan-3-yl)-[1,4′-bipiperidin]-4-yl)-1H-benzo[d]imidazole] | > 50 | 3.6 | 3.57 | > 50
Cn1c(-c2ccc(S(C)(=O)=O)cc2)nc2cc(C3CCN(C4CCN(C5CCOCC5)CC4)CC3)c(F)cc21 [Example 245, 6-fluoro-1-methyl-2-(4-(methylsulfonyl)phenyl)-5-(1′-(tetrahydro-2H-pyran-4-yl)-[1,4′-bipiperidin]-4-yl)-1H-benzo[d]imidazole] | > 50 | 1.1 | 1.06 | > 50
COCCN1CCC(N2CCC(c3cc4nc(-c5ccc(S(C)(=O)=O)cc5)n(C)c4cc3F)CC2)CC1 [Example 246, 6-fluoro-5-(1′-(2-methoxyethyl)-[1,4′-bipiperidin]-4-yl)-1-methyl-2-(4-(methylsulfonyl)phenyl)-1H-benzo[d]imidazole] | > 50 | 0.4 | 0.398 | 26.2
CC(C)CN1C2CCC1CC(N1CCC(c3cc4nc(-c5ccc(S(C)(=O)=O)cc5)n(C)c4cc3F)CC1)C2 (stereo not drawn) [Example 247, 6-fluoro-5-(1-(8-isobutyl-8-azabicyclo[3.2.1]octan-3-yl)piperidin-4-yl)-1-methyl-2-(4-(methylsulfonyl)phenyl)-1H-benzo[d]imidazole] | > 50 | 0.03 | 0.03 | 21.1
CC(C)CN1C2CCC1CC(N1CCC(c3cc4nc(-c5ccc(S(C)(=O)=O)cc5)n(C)c4cc3F)CC1)C2 (stereo not drawn) [Example 248, 6-fluoro-5-(1-(8-isobutyl-8-azabicyclo[3.2.1]octan-3-yl)piperidin-4-yl)-1-methyl-2-(4-(methylsulfonyl)phenyl)-1H-benzo[d]imidazole] | > 50 | 0.078 | 0.078 | > 50
Cn1c(-c2ccc(S(C)(=O)=O)cc2)nc2cc(C3CCN(C4CC5CCC(C4)N5C4CCC4)CC3)c(F)cc21 (stereo not drawn) [Example 251, 5-(1-(8-cyclobutyl-8-azabicyclo[3.2.1]octan-3-yl)piperidin-4-yl)-6-fluoro-1-methyl-2-(4-(methylsulfonyl)phenyl)-1H-benzo[d]imidazole] | > 50 | 0.071 | 0.071 | 19.5
COCCN1C2CCC1CC(N1CCC(c3cc4nc(-c5ccc(S(C)(=O)=O)cc5)n(C)c4cc3F)CC1)C2 (stereo not drawn) [Example 257, 6-fluoro-5-(1-(8-(2-methoxyethyl)-8-azabicyclo[3.2.1]octan-3-yl)piperidin-4-yl)-1-methyl-2-(4-(methylsulfonyl)phenyl)-1H-benzo[d]imidazole] | > 50 | 0.049 | 0.049 | 30.7
